Test results from patent publication US9650395B2, “Antibacterial compounds and methods for use” (PTC Therapeutics, Inc., priority 2011, dated 2017).
Converted amounts (≈) assume the structure as drawn. Where a name gives a salt, the structure may show the parent alone. Read-outs that look alike come from different tables or passages of the source.

What was measured:
[1] = tested on: Acinetobacter baumannii (A. baumannii) BAA747; assay: Antibacterial activity, MIC, A. baumannii BAA747; type: cell-based; conditions: A. baumannii BAA747; for MIC: Acinetobacter baumannii, read-out: MIC BAA747
[2] = tested on: Neisseria meningitidis (N. meningitidis) 13090; assay: Antibacterial activity, MIC, N. meningitidis 13090; type: cell-based; conditions: N. meningitidis 13090
[3] = tested on: E. coli ELZ4251 (MDR clinical isolate); assay: Antibacterial activity, MIC, MDR E. coli ELZ4251; type: cell-based, Escherichia coli; conditions: E. coli ELZ4251, MDR clinical isolate
[4] = tested on: control Gram-negative E. coli 25922 strain; assay: Antibacterial activity, microbroth dilution MIC, E. coli 25922; type: cell-based, Escherichia coli; conditions: E. coli 25922, microbroth dilution; for MIC: Escherichia coli, read-out: MIC, 25922
[5] = tested on: E. coli ELZ4000 (MDR clinical isolate); assay: Antibacterial activity, MIC, MDR E. coli ELZ4000; type: cell-based, Escherichia coli; conditions: E. coli ELZ4000, MDR clinical isolate
[6] = tested on: Gram-positive Staphylococcus aureus (S. aureus) 29213; assay: Antibacterial activity, microbroth dilution MIC, S. aureus 29213; type: cell-based; conditions: S. aureus 29213, microbroth dilution; for MIC: Staphylococcus aureus, read-out: MIC, 29213
[7] = tested on: Moraxella catarrhalis (M. catarrhalis) 25238; assay: Antibacterial activity, MIC, M. catarrhalis 25238; type: cell-based; conditions: M. catarrhalis 25238
[8] = tested on: Haemophilus influenzae (H. influenzae) 49247; assay: Antibacterial activity, MIC, H. influenzae 49247; type: cell-based; conditions: H. influenzae 49247
How it was run: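 A microbroth dilution method gave the minimum inhibitory concentration for each compound against H. influenzae 49247, a Gram-negative bacterium. MIC means the smallest concentration of drug at which no macroscopically visible bacterial growth appears under the conditions of the test.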

[9] = tested on: Klebsiella pneumoniae (K. pneumoniae) 35657; assay: Antibacterial activity, MIC, K. pneumoniae 35657; type: cell-based; conditions: for MIC: Klebsiella pneumoniae
[10] = tested on: Pseudomonas aeruginosa (P. aeruginosa) 27853; assay: Antibacterial activity, MIC, P. aeruginosa 27853; type: cell-based; conditions: P. aeruginosa 27853; for MIC: Pseudomonas aeruginosa, read-out: MIC 27853
Description: (§1) The antibacterial activity from a microbroth dilution method may be presented as the minimum inhibitory concentration (MIC in […]). The MIC value is the lowest concentration of a drug which prevents macroscopically visible bacterial growth under test conditions.
Antibacterial activity of test compounds against the Gram-negative bacterium Pseudomonas aeruginosa (P. aeruginosa) 27853 is shown in Table 5.

[11] = tested on: super sensitive Gram-negative Escherichia coli (E. coli) BAS849; assay: Antibacterial activity, microbroth dilution MIC, E. coli BAS849; type: cell-based; conditions: for MIC: Escherichia coli, read-out: MIC, BAS849
[12] = tested on: quinolone resistant E. coli LZ3111; assay: Antibacterial activity, MIC, quinolone resistant E. coli LZ3111; type: cell-based, Escherichia coli; conditions: for MIC: Escherichia coli, read-out: MIC, LZ3111
Description: as §1
Mutations in these regions are known to confer a high level resistance to the quinolone class of antibiotics.

[13] = E. coli BAS849, microbroth dilution

Compound	MIC [1] [µg/mL]	MIC [4] [µg/mL]	MIC [6] [µg/mL]	MIC [9] [µg/mL]	MIC [10] [µg/mL]	MIC [11, 13] [µg/mL]	MIC [12] [µg/mL]	MIC [11] [µg/mL]	further results
CN[C@@H]1CCC[C@@H]2CN(c3ccc(-c4[nH]c(=O)c(C(=O)O)c(O)c4C)cc3)C[C@@H]21.Cl [Cpd 260, 4-hydroxy-5-methyl-6-{4-[(3aR,4R,7aS)-4-(methylamino)octahydro-2H-isoiridol-2-yl]phenyl}-2-oxo-1,2-dihydropyridine-3-carboxylic acid hydrochloride]									MIC BAA747 [1]: * (an MIC value between >12.5 μg/mL and ≦150 μg/mL is indicated by a single star (*)); MIC 13090 [2]: *** (an MIC value between >1.0 μg/mL and ≦3.5 μg/mL is indicated by three stars (***)); MIC ELZ4251 [3]: *** (an MIC value between >1.0 μg/mL and ≦3.5 μg/mL is indicated by three stars (***)); MIC, 25922 [4]: ** (an MIC value between >3.5 μg/mL and ≦12.5 μg/mL is indicated by two stars (**)); MIC ELZ4000 [5]: ** (an MIC value between >3.5 μg/mL and ≦12.5 μg/mL is indicated by two stars (**)); MIC, 29213 [6]: *** (an MIC value between >1.0 μg/mL and ≦3.5 μg/mL is indicated by three stars (***)); MIC 25238 [7]: ** (an MIC value between >3.5 μg/mL and ≦12.5 μg/mL is indicated by two stars (**)); MIC 49247 [8]: * (an MIC value between >12.5 μg/mL and ≦150 μg/mL is indicated by a single star (*)); MIC 35657 [9]: ** (an MIC value between >3.5 μg/mL and ≦12.5 μg/mL is indicated by two stars (**)); MIC 27853 [10]: * (an MIC value between >12.5 μg/mL and ≦150 μg/mL is indicated by a single star (*)); MIC, BAS849 [11, 13]: ** (an MIC value between >3.5 μg/mL and ≦12.5 μg/mL is indicated by two stars (**)); MIC, LZ3111 ([12]; quinolone resistant E. coli LZ3111): **** (an MIC value of ≦1.0 μg/mL is indicated by four stars (****))
CCc1c(-c2ccc(N3C[C@H]4CCCC[C@@]4(CN(C)C)C3)cc2)[nH]c(=O)c(C(=O)O)c1O.Cl [Cpd 266, 6-(4-{(3aR,7aS)-3a-[(dimethylamino)methyl]octahydro-2H-isoindol-2-yl}phenyl)-5-ethyl-4-hydroxy-2-oxo-1,2-dihydropyridine-3-carboxylic acid hydrochloride]	12.5 to 150	12.5 to 150	3.5 to 12.5	12.5 to 150	12.5 to 150	1 to 3.5	3.5 to 12.5		MIC ([3]; Escherichia coli, read-out: MIC ELZ4251): 12.5 to 150 µg/mL; MIC ([5]; Escherichia coli, read-out: MIC ELZ4000): 12.5 to 150 µg/mL
CCc1cc(C(=O)O)c(=O)[nH]c1-c1ccc(N2C[C@@H]3[C@@H](N)[C@@H]3C2)cc1F [Cpd 231, 6-{4-[(1R,5S,6s)-6-amino-3-azabicyclo[3.1.0]hex-3-yl]-2-fluorophenyl}-5-ethyl-2-oxo-1,2-dihydropyridine-3-carboxylic acid trifluoroacetate]	12.5 to 150	1 to 3.5	12.5 to 150	1 to 3.5	12.5 to 150		12.5 to 150	< 1	
CCc1c(-c2ccc(N3CC4CCCCC4(C#N)C3)cc2)[nH]c(=O)c(C(=O)O)c1O.O=C(O)C(F)(F)F (stereo not drawn) [Cpd 276, 6-[4-(3a-cyanooctahydro-2H-isoindol-2-yl)phenyl]-5-ethyl-4-hydroxy-2-oxo-1,2-dihydropyridine-3-carboxylic acid trifluoroacetate]	12.5 to 150	12.5 to 150	1 to 3.5	12.5 to 150	12.5 to 150		12.5 to 150	< 1	
CCc1c(-c2ccc(N3CC[C@@H](O)C3)cc2F)[nH]c(=O)c(C(=O)O)c1O [Cpd 292, 5-ethyl-6-{2-fluoro-4-[(3R)-3-hydroxypyrrolidin-1-yl]phenyl}-4-hydroxy-2-oxo-1,2-dihydropyridine-3-carboxylic acid]	3.5 to 12.5 (≈ 9.66 to 34.5 µM)	1 to 3.5 (≈ 2.76 to 9.66 µM)	12.5 to 150 (≈ 34.5 to 414 µM)	1 to 3.5 (≈ 2.76 to 9.66 µM)	3.5 to 12.5 (≈ 9.66 to 34.5 µM)	< 1	12.5 to 150 (≈ 34.5 to 414 µM)		
